pIC50: −log10 of the molar value. Values after ≈ are worked out from the molar mass of the structure shown. Like-named read-outs stand apart in the source and are kept apart here.
What was measured:
[1] = tested on: A. baumannii (ATCC17978); assay: 50% growth inhibitory concentration (IC50) determination assay, A. baumannii; type: cell-based; settings: Acinetobacter baumannii, ATCC17978; Iso-Sensitest broth, growth by OD 600 nm over 16 h; <0.098 = detection limit
Procedure: (§1) The in vitro antimicrobial activity of the compounds against S. aureus (ATCC29213), K. pneumoniae (ATCC10031), and A. baumannii (ATCC17978), was determined according to the following procedure: The assay used a 10-points Iso-Sensitest broth medium to measure quantitatively the in vitro activity of the compounds against S. aureus ATCC29213, K. pneumoniae ATCC 10031, and A. baumannii ATCC17978. Stock compounds in DMSO were serially two-fold diluted (range from 50 to 0.097 μM final concentration) in 384 wells microtiter plates and inoculated with 49 μL the bacterial suspension in Iso-Sensitest broth medium to have a final cell concentration of ˜5×10^5 CFU/mL in a final volume/well of 50 μL/well. Microtiter plates were incubated at 35±2° C. Bacterial cell growth was determined with the measurement of optical density at λ=600 nm each 20 minutes over a time course of 16 h.

[2] = tested on: S. aureus (ATCC29213); assay: 50% growth inhibitory concentration (IC50) determination assay, S. aureus; type: cell-based; settings: Staphylococcus aureus, ATCC29213; Iso-Sensitest broth, growth by OD 600 nm over 16 h; <0.098 = detection limit
Procedure: as §1

[3] = tested on: K. pneumoniae (ATCC10031); assay: 50% growth inhibitory concentration (IC50) determination assay, K. pneumoniae; type: cell-based; settings: Klebsiella pneumoniae, ATCC10031; Iso-Sensitest broth, growth by OD 600 nm over 16 h; <0.098 = detection limit
Procedure: as §1

[4] = tested on: multiple species and strains; assay: microbe, parasite or virus in culture; set-up: MIC S9 / MIC S7 / MIC S11 / MIC S8 / MIC S10: unit not given beside the values; settings: for MIC S9: E. coli ATCC 35218
Procedure: The MIC of antibacterial compounds against multiple species and strains was determined using the broth microdilution method according to M07-A10 Clinical and Laboratory Standards Institute (CLSI) guidelines (CLSI (2015) Methods for dilution antimicrobial susceptibility tests for bacteria that grow aerobically; Approved Standard, Tenth Edition. CLSI Document M7-A10 (ISBN 1-56238-987-4). Wayne, Pa.: Clinical and Laboratory Standards Institute, 19087, USA.). In short, bacterial strain preparation was performed on D1 and D2. […] 5-10 well-isolated colonies of similar morphology were selected and re-streaked onto fresh agar plates using sterile loops and incubated for 20-24 hr at 35±2° C. Bacterial strains were subcultured two times to ensure fresh inoculums for MIC screening. […] Alternatively, 1-2 colonies were transferred into 500 μL of saline and OD600 was adjusted to ˜0.1 using an OD meter. Bacterial inoculum was diluted by 1:280 for Gram-positive strains and 1:400 for Gram-negative strains into corresponding medium broth (CAMHB, CAMHB+3% lysed horse blood, HTM) (e.g. 35.6 μL of inoculum into 10 mL of CAMHB or 25 μL of inoculum into 10 mL of CAMHB). For compound plate, the compound stock solutions were prepared in 100% DMSO on the day of MIC screening and used immediately. Compound stock concentration=[(highest testing concentration)×100 μL/2 μL] (e.g. if the required highest testing concentration is 64 μg/mL in assay plates, stock concentration=64 μg/mL×100 μL/2 μL=3.2 mg/mL). […] 1 μL of each well was transferred in a new MTP, which served as the test plate by subsequent inoculation. The bacterial suspension prepared above is dispensed at 98 μL/well within 15 minutes after preparation. Negative controls (lack of bacterial cells) and growth control wells (lack of compound) were included in all plates. MTPs were incubated for 18-24 hours at 35±2° C. in ambient air. The MIC was recorded and CFUs were calculated on Day 4. The assay plate was placed on the top of MIC reader, and the magnification mirror was adjusted to read each wells, recording growth status as raw data. Photo images of each assay plates were recorded using Q Count 530 (Spiral Biotech). The MIC value of each compound, expressed as μg/mL, was determined as the lowest concentration required for complete growth inhibition (no visible growth).

[5] = Acinetobacter baumannii, ATCC19606, read-out: MIC S1, A. baumannii ATCC 19606
[6] = Acinetobacter baumannii, ATCC51432, read-out: MIC S2, A. baumannii ATCC 51432
[7] = Acinetobacter baumannii, ATCCBAA747, read-out: MIC S3, A. baumannii ATCC BAA-747
[8] = Escherichia coli, ATCC25922, read-out: MIC S11, E. coli ATCC 25922
[9] = Escherichia coli, ATCCBAA2340, read-out: MIC S10, E. coli ATCC BAA-2340
[10] = Klebsiella pneumoniae, ATCC10031, read-out: MIC S4, K. pneumoniae ATCC 10031
[11] = Klebsiella pneumoniae, ATCC700603, read-out: MIC S5, K. pneumoniae ATCC 700603
[12] = Klebsiella pneumoniae, ATCCBAA2146, read-out: MIC S6, K. pneumoniae ATCC BAA-2146
[13] = Pseudomonas aeruginosa, ATCC27853, read-out: MIC S7, P. aeruginosa ATCC 27853
[14] = Pseudomonas aeruginosa, ATCCBAA2113, read-out: MIC S8, P. aeruginosa ATCC BAA-2113

SMILES	pIC50 [1]	pIC50 [2]	pIC50 [3]	MIC [4, 5] [µg/mL]	MIC [4, 6] [µg/mL]	MIC [4, 7] [µg/mL]	MIC S9 [4]	MIC [4, 8] [µg/mL]	MIC [4, 9] [µg/mL]	MIC [4, 10] [µg/mL]	MIC [4, 11] [µg/mL]	MIC [4, 12] [µg/mL]	MIC [4, 13] [µg/mL]	MIC [4, 14] [µg/mL]
CNc1cc(F)c(C#N)c2c1[nH]c1ncc(-c3ccc4ccc(C(=O)O)c(=O)n4c3)c(N(C)C)c12 [Example 1.18, 7-[5-cyano-4-(dimethylamino)-6-fluoro-8-(methylamino)-9H-pyrido[2,3-b]indol-3-yl]-4-oxo-quinolizine-3-carboxylic acid]				0.092 (≈ 0.196 µM)	0.367 (≈ 0.78 µM)	0.184 (≈ 0.391 µM)	0.046	0.551 (≈ 1.17 µM)	0.046 (≈ 0.0978 µM)	0.046 (≈ 0.0978 µM)	0.092 (≈ 0.196 µM)	0.735 (≈ 1.56 µM)	0.367 (≈ 0.78 µM)	0.184 (≈ 0.391 µM)
CNc1cc(F)c(F)c2c1[nH]c1ncc(-c3cc(C)c4ccc(C(=O)O)c(=O)n4c3)c(N(C)C)c12 [Example 1.20, 7-[4-(dimethylamino)-5,6-difluoro-8-(methylamino)-9H-pyrido[2,3-b]indol-3-yl]-9-methyl-4-oxo-quinolizine-3-carboxylic acid]				0.187 (≈ 0.392 µM)	1.49 (≈ 3.12 µM)	0.746 (≈ 1.56 µM)	0.559	0.42 (≈ 0.88 µM)	0.559 (≈ 1.17 µM)	0.187 (≈ 0.392 µM)	1.49 (≈ 3.12 µM)	2.98 (≈ 6.25 µM)	2.98 (≈ 6.25 µM)	2.24 (≈ 4.69 µM)
CNc1cc(F)c(F)c2c1[nH]c1ncc(-c3ccc4ccc(C(=O)O)c(=O)n4c3)c(N3CCC(C4(N)CC4)C3)c12 (stereo not drawn) [Example 1.21, 7-[4-[3-(1-aminocyclopropyl)pyrrolidin-1-yl]-5,6-difluoro-8-(methylamino)-9H-pyrido[2,3-b]indol-3-yl]-4-oxo-quinolizine-3-carboxylic acid]				0.603 (≈ 1.11 µM)	1.21 (≈ 2.22 µM)	1.21 (≈ 2.22 µM)	0.603	0.34 (≈ 0.624 µM)	0.302 (≈ 0.555 µM)	0.038 (≈ 0.0698 µM)	4.83 (≈ 8.87 µM)	4.83 (≈ 8.87 µM)	1.21 (≈ 2.22 µM)	2.41 (≈ 4.43 µM)

The next lines start with results.

pIC50 [1]	pIC50 [2]	pIC50 [3]	SMILES	MIC [4, 5] [µg/mL]	MIC [4, 6] [µg/mL]	MIC [4, 7] [µg/mL]	MIC S9 [4]	MIC [4, 8] [µg/mL]	MIC [4, 9] [µg/mL]	MIC [4, 10] [µg/mL]	MIC [4, 11] [µg/mL]	MIC [4, 12] [µg/mL]	MIC [4, 13] [µg/mL]	MIC [4, 14] [µg/mL]
> 7.01	> 7.01	> 7.01	CNc1cc(F)c(F)c2c1[nH]c1ncc(-c3ccc4ccc(C(=O)O)c(=O)n4c3)c(N3CC4[C@H](CC[C@@H]4N(C)C)C3)c12 (stereo partly drawn) [Example 1.09, 7-[4-[cis-(4S)-4-(dimethylamino)-3,3a,4,5,6,6a-hexahydro-1H-cyclopenta[c]pyrrol-2-yl]-5,6-difluoro-8-(methylamino)-9H-pyrido[2,3-b]indol-3-yl]-4-oxo-quinolizine-3-carboxylic acid]											
> 7.01	> 7.01	> 7.01	CNc1cc(F)c(F)c2c1[nH]c1ncc(-c3ccc4ccc(C(=O)O)c(=O)n4c3)c(N3C[C@@H]4[C@H](C3)[C@H]4N(C)C)c12 [Example 1.13, 7-(4-((1R,5S,6S)-6-(dimethylamino)-3-azabicyclo[3.1.0]hexan-3-yl)-5,6-difluoro-8-(methylamino)-9H-pyrido[2,3-b]indol-3-yl)-4-oxo-4H-quinolizine-3-carboxylic acid]											
> 7.01	> 7.01	> 7.01	CNc1cc(F)c(F)c2c1[nH]c1ncc(-c3ccc4ccc(C(=O)O)c(=O)n4c3)c(N3C[C@@H]4CCN(C)[C@@H]4C3)c12 [Example 3.03B, 7-[4-[(3aS,6aS)-1-methyl-2,3,3a,4,6,6a-hexahydropyrrolo[3,4-b]pyrrol-5-yl]-5,6-difluoro-8-(methylamino)-9H-pyrido[2,3-b]indol-3-yl]-4-oxo-quinolizine-3-carboxylic acid]											
